# Measured values published in patent US20110178016A1, “PULSE PARATHYROID HORMONE FOR TREATMENT OF THE HEM[…], STROMAL CELL LOSS, AND VASCULAR INJURY RESULTING FROM ACUTE EXPOSURE TO LETHAL RADIATION” (priority 2008, published 2011).
# “Also recorded” adds a separate entry of the source.
# Experiments:
# [1] = test system: macaque monkeys following chemo-ablative therapy and MHC mis-matched allogeneic stem cell transplant; test: Daily PTH after chemo-ablative conditioning and MHC mismatched allogeneic stem cell transplant; format: in vivo
# Description: A previously unrecognized role for PTH on mitigation of myelosuppression in macaque monkeys is described. Following chemo-ablative therapy and MHC mis-matched allogeneic stem cell transplant, animals were randomized to daily PTH treatment (5 mcg/kg/day subcutaneously) or placebo. […] Following myeloablation, PTH may act to increase megakaryopoiesis through increased production of HSC.
# (§1) Bone marrow transplant studies by Calvi and colleagues characterized this process in the syngeneic mouse model of osteoblastic activation. To see if PTH could enhance allogeneic stem cell engraftment in nonhuman primates (monkeys), donors were MHC mismatched based on recipient proliferation against donor cells in the mixed lymphocyte culture and by disparity at the class I antigen, Bw6. This disparity permitted tracking of Bw6+ donor cells following transplantation into Bw6-recipients. Eight control recipients were conditioned with thymoglobulin, rituxan, fludarabine, and melphalan. Six animals received the conditioning regimen supplemented with parathyroid hormone beginning on the first day of the conditioning regimen and administered daily at a dose of 5 micrograms/kg subcutaneously. An allogeneic stem cell transplant consisting of 2−4×10^6 CD34+cells/kg was administered on day 0. Outcome measures included PTH levels, CBCs, and donor engraftment via flow cytometry.
# [2] = PTH levels after subcutaneous administration in transplanted monkeys; format: in vivo, nonhuman primates (monkeys); conditions: 5 micrograms/kg subcutaneously
# Description: as §1
# [3] = test system: bone marrow colony forming units / hematopoietic stem cells; test: Bone marrow colony forming units and hematopoietic stem cell content in irradiated mice; format: in vivo, B6 mice; conditions: 772 cGy
# Method: In a second experiment, a sub-group of animals were euthanized on day 7, n=3 per cohort. Bone marrows were flushed and CFUs were performed.
# B6 mice underwent 772 cGy irradiation and a daily total dose of 400 mcg/kg/day of PTH.
# One group of animals was euthanized on day 3 (n=3) one group on day 7 (n=4) and one group (n=3) on day 28.
# Bone marrow was analyzed for colony forming units (CFU) (FIGS. 9A and 9B), hematopoietic stem cell content. Serum was analyzed for PTH levels on the final day of the study to determine the duration of detectable PTH in the serum following the final dose.
# Mice underwent exposure to 772 cGy radiation and were randomized to treatment of daily PTH 400 mcg/kg or saline. On days 3 (n=3) and 7 (n=4) bone marrow was analyzed for colony forming units.
# Following irradiation with 772 cGy, mice underwent bone marrow analysis on days 3 (n=3) or 7 (n=4) for hematopoietic stem cell content. […] (FIG. 11)
# cynomolgus monkeys = test: Toxicity studies of a 21 day course of PTH in monkeys (cardiac monitoring, serum calcium, kidney MRI); format: in vivo
# Method: (§2) Two cynomolgus monkeys (hereafter referred to as CYNOs) were treated with a 21 day course of daily subcutaneous PTH at either 100 mcg/kg (monkey 7801) or 50 mcg/kg (monkey 7872). Hematopoietic outcome measures included:
# (d) MRI of the kidneys upon completion of the 21 day course.
# Three cynomolgus monkeys (hereafter referred to as CYNOs) were treated with a 21 day course of daily subcutaneous PTH at either 50 ug/kg (7872), 100 ug/kg (7801), or 250 ug/kg (7876).
# Two were irradiated (7801 and 7875) at a lethal dose of 682 cGy and administered 100 ug/kg. Of note, 7801 underwent a washout period prior to undergoing irradiation and subsequent PTH therapy
# Outcome measures included:
# (a) continuous cardiac monitoring and serum calcium
# (e) MRI of the kidneys upon completion of the 21 day course.
# [4] = Serum PTH levels for PK analysis in non-irradiated monkeys; format: in vivo, cynomolgus monkeys; conditions: non-irradiated monkeys 7801 (100 mcg/kg/d) and 7872 (50 mcg/kg/d), days 1 and 18
# Method: PTH becomes undetectable by 4-6 hours after dosing, despite extremely high doses of PTH.
# as §2
# (c) serum PTH levels; and […]
# rat = conditions: prolonged daily dosing, 4 months-2 years; cited from earlier work
# monkeys = conditions: prolonged daily dosing, 4 months-2 years; cited from earlier work
# [5] = clinical studies, cited from earlier work
# [6] = macaques, PTH 5 mcg/kg/day sc, statistical significance by 4 weeks
# [7] = CYNOs, 21 day course, 100 mcg/kg or 50 mcg/kg
# [8] = highest dose, 250 ug/kg, administered for 21 days
compound,measurement,setting,value
"CC[C@H](C)[C@H](NC(=O)[C@H](CCC(=O)O)NC(=O)[C@H](CO)NC(=O)[C@@H](NC(=O)[C@@H](N)CO)C(C)C)C(=O)N[C@@H](CCC(N)=O)C(=O)N[C@@H](CC(C)C)C(=O)N[C@@H](CCSC)C(=O)N[C@@H](Cc1cnc[nH]1)C(=O)N[C@@H](CC(N)=O)C(=O)N[C@@H](CC(C)C)C(=O)NCC(=O)N[C@@H](CCCCN)C(=O)N[C@@H](Cc1cnc[nH]1)C(=O)N[C@@H](CC(C)C)C(=O)N[C@@H](CC(N)=O)C(=O)N[C@@H](CO)C(=O)N[C@@H](CCSC)C(=O)N[C@@H](CCC(=O)O)C(=O)N[C@@H](CCCN=C(N)N)C(=O)N[C@H](C(=O)N[C@@H](CCC(=O)O)C(=O)N[C@@H](Cc1c[nH]c2ccccc12)C(=O)N[C@@H](CC(C)C)C(=O)N[C@@H](CCCN=C(N)N)C(=O)N[C@@H](CCCCN)C(=O)N[C@@H](CCCCN)C(=O)N[C@@H](CC(C)C)C(=O)N[C@@H](CCC(N)=O)C(=O)N[C@@H](CC(=O)O)C(=O)N[C@H](C(=O)N[C@@H](Cc1cnc[nH]1)C(=O)N[C@@H](CC(N)=O)C(=O)N[C@@H](Cc1ccccc1)C(=O)O)C(C)C)C(C)C [PTH, Teriparatide]",hemoglobin (serial CBCs),[1]; PTH group vs control group,no significant difference
same,engrafting donor B cells,"[1]; macaques, PTH 5 mcg/kg/day sc",significantly increased
same,host (recipient) T cells,"[1]; macaques, PTH 5 mcg/kg/day sc",no significant increase; also recorded: little or no effect
same,host or donor myeloid lineage CD14 or CD11b+ cells,"[1]; macaques, PTH 5 mcg/kg/day sc",no significant increase
same,engrafting donor T cells (CD4 and CD8 subsets),"[1]; macaques, PTH 5 mcg/kg/day sc vs control",significant increases; also recorded: significantly increased; also recorded: increased over control animals
same,engrafting donor CD34+ cells,[1]; [6],significantly increased; also recorded: significant increases
same,host CD34+ stem cells,[1]; [6],significantly increased; also recorded: significant increases
same,platelet counts in peripheral blood,"[1]; macaques, PTH 5 mcg/kg/day subcutaneously vs untreated controls, first observed 7 days after PTH therapy",statistically significant increase; also recorded: increased levels of platelets
same,recipient granulocytes or natural killer cells,"[1]; macaques, PTH 5 micrograms/kg sc daily",No effect
same,iliac crest bone biopsy findings after vs before PTH treatment,"[1]; monkeys 7150 and 7154, 5 weeks after PTH treatment","increased cortical bone, increased osteoblasts, and loss of adiposity; also recorded: adiposity was reduced, and cortical bone formation increased"
same,time by which PTH levels were undetectable,[2],≤ 4 h
same,Tmax,"[2]; monkey, in vivo, sc, read-out: time of peak PTH levels after administration (converted)",30 min
same,CFU capabilities of bone marrow,"[3]; PTH 400 mcg/kg/day x 7 days, euthanized on day 7, n=3 per cohort, compared to other groups",greatest preservation of CFU capabilities; also recorded: preserves CFU
same,CFU-GM and CFU-M in bone marrow,"[3]; daily PTH 400 mcg/kg vs saline, days 3 and 7",increased with PTH therapy
same,"bone marrow hematopoietic stem cell content, treatment vs control","[3]; daily PTH 400 mcg/kg, day 3",no statistical significance
same,increase in bone marrow stem cell content,"[3]; daily PTH 400 mcg/kg, day 7",5 fold
same,BFU and CFU-GEMM in bone marrow,"[3]; daily PTH 400 mcg/kg, trend more pronounced on day 7",increased with PTH treatment
same,tolerability,"cynomolgus monkeys; 250 ug/kg up to 19 days, non-irradiated cynomolgus monkey",well tolerated
same,Cardiac monitoring,cynomolgus monkeys; [7],some shortening of the Qt segment but no life threatening arrythmias
same,serum calcium peak,cynomolgus monkeys; [7],≤ 11.5 mg/dL
same,time for serum calcium to return to normal range after dosing,cynomolgus monkeys; [7],6 to 10 h
same,T wave height and ST-intervals over time,cynomolgus monkeys; [8],some decrease
same,arrhythmias,cynomolgus monkeys; [8],No life-threatening arrhythmias
same,tolerance in toxicity studies,"cynomolgus monkeys; irradiated and non-irradiated monkeys, doses comparable to doses to ameliorate radiation damage",tolerated
same,serum calcium levels,"cynomolgus monkeys; irradiated monkeys 7875 and 7801, 100 ug/kg, exception day 19 for 7801",normal calcium levels except one timepoint
same,BUN or creatinine,"cynomolgus monkeys; monkeys 7801 (100 mcg/kg) and 7872 (50 mcg/kg), 21 day course",No change
same,MRI examination of the kidneys,"cynomolgus monkeys; monkeys 7801 (100 mcg/kg) and 7872 (50 mcg/kg), after 21 day course",no cystic degeneration or tumors
same,serum calcium level,"cynomolgus monkeys; non-irradiated animal 7876, 250 ug/kg, 21st day of dosing, with some somnolent behavior",17 mg/dL
same,toxicity during the first 20 days of dosing,"cynomolgus monkeys; three non-irradiated cynomolgus monkeys, 50, 100, 250 ug/kg, calcium slightly elevated",did not experience toxicity
same,time after dosing by which PTH becomes undetectable in serum,[4],4 to 6 h
same,doses at which toxicity was observed,rat,exceeding 75 mcg/kg
same,doses at which toxicity was observed,monkeys,> 0.04 mg/kg
same,toxic effect,[5]; even with chronic treatment,no toxic effect
same,biological potency vs full-length PTH protein,[5],comparable biological potency
